How the values were obtained:
[1] = Dissociation of NAC-AITC in phosphate buffer (HPLC); format: physicochemical; conditions: pH 7.4, 37° C.
Method: FIG. 11. Dissociation of NAC-AITC. NAC-AITC at 100 μM was freshly prepared in 20 mM sodium phosphate buffer (pH 7.4) containing 1% DMSO and incubated at 37° C. for 0, 0.5, 1, 2, 3, 4, 5 and 24 h. At each time point, an aliquot of the solution was analyzed for remaining NAC-AITC by HPLC. Each value is a mean±SD (n=3).
Measurement of dissociation of NAC-AITC. The assay was based on a known protocol. Briefly, a solution of NAC-AITC was prepared as rapidly as possible by dilution of 0.2 ml of 5 mM NAC-AITC freshly prepared in 20 mM sodium phosphate buffer (pH 7.4): DMSO (1:1) with 20 mM sodium phosphate buffer (pH 7.4) to 10 ml, resulting in a 0.1 mM NAC-AITC solution in 1% DMSO. An aliquot (0.05 ml) was immediately analyzed by HPLC; the remainder of the solution was incubated at 37° C. on a shaker, and an aliquot (0.05 ml) was analyzed by HPLC at different time points up to 24 h. The HPLC condition was the same as used in the urine analysis described above. A plot of the conjugate peak area remaining versus time was generated to determine the half-time of decomposition.

[2] = test system: caspase-3, α-tubulin, β-tubulin, VEGF in AY-27 cells; test: Western blotting in cultured AY-27 cells; format: cell-based, rat; conditions: NAC-AITC 7.5 and 15 μM, 24 h
Method: (§1) FIG. 8. Inhibition of bladder cancer development by MSP-1. Female F344 rats were inoculated with AY-27 cells intravesically via a urethra catheter to initiate development of orthotopic bladder cancer. Oral administration of MSP-1 of vehicle (water) once daily was started 1 day after cancer cell inoculation and ended 3 weeks later. The number of rats per group varied from 11-29. A. Initial (□) and final (▪) body weights. B. Tumor weight was calculated by subtracting the average normal bladder weight from tumor-bearing bladder weight. *P<0.05. Each value in A and B is mean±SEM. C. Percentage of bladder where the tumor invaded the muscle tissue. D. The effects of MSP-1 on selected anticancer targets in UM-UC-3 cells (in vitro), AY-27 cells (in vitro) and AY-27 tumors (in vivo). The cells were treated with MSP-1 at the sinigrin concentrations of 13 and 26 microM for 24 h. The bladder tumors were removed from rats treated with MSP-1 at the sinigrin doses of 9 or 90 micromols/kg once daily for 3 weeks, started 1 day after cancer cell inoculation. Cell lysates and tumor homogenates were analyzed by Western blotting, using GAPDH as a loading control.
FIG. 13. Molecular targets of NAC-AITC in bladder cancer. AY-27 cells in culture were treated with NAC-AITC for 24 h. The results are representative of at least two experiments. The bladder tumors were removed from rats, which were treated with NAC-AITC orally at 10 μmol/kg once daily for 3 weeks, starting 1 day after intravesicular inoculation of AY-27 cells. The results are representative of three to five tumors assayed in each group. Cell lysates and tumor tissue homogenates were analyzed by western blot analysis, using GAPDH as a loading control.
Western blot analysis. Cells after harvest were washed with ice-cold phosphate-buffered saline, suspended in radioimmunoprecipitation assay lysis buffer supplemented with a protease inhibitor cocktail (Sigma-Aldrich) and further lysed by sonication. […]

[3] = test system: normal human bladder epithelial cells (HUC); test: Cell cycle arrest and apoptosis in HUC; format: cell-based; conditions: 7.5 and/or 15 microM
Method: FIG. 3. The effect of AITC on cell survival and proliferation. AITC was evaluated at the indicated concentrations in human bladder cancer UM-UC-3 cells, rat bladder cancer AY-27 cells, and normal human bladder epithelial cells (HUC). A. Cell growth inhibition, measured by MTT assay, 72-h AITC treatment. IC50 was calculated from nonlinear regression curve fit. B. Cell cycle arrest (□, subG1; ? , G1; ? , 5; ▪, G2/M), measured by flow cytometry, 24 h AITC treatment. C. Apoptosis induction, measured by an ELISA assay, 24 h AITC treatment. Mean±SE, n=3-6), *P<0.05.

[4] = test system: α-tubulin, β-tubulin, γ-tubulin, caspase-9, caspase-3, VEGF in UM-UC-3 cells; test: Western blotting in UM-UC-3 cells (tubulins, caspases, VEGF); format: cell-based, human; conditions: 24 h
Method: FIG. 4. Effect of AITC on mitosis, tubulin expression and apoptosis in human bladder cancer UM-UC-3 cells. Cells were treated with vehicle or AITC for 24 h (each numerical value is mean±SD). A. Flow cytometry analysis for cell cycle arrest. B. Wright-Giemsa staining for counting mitotic figures. Arrows point to cells in mitosis or mitotic catastrophe. C. Immunofluorescent staining of microtubules (green color) and DNA staining with DAPI (blue color). D. Western blotting of tubulins (GAPDH as a loading control). E. Loss of mitochondrial transmembrane potential (Δψm) measured by flow cytometry. F. Western blotting of caspase-9 and caspase-3 (GAPDH as a loading control). G. Apoptotic cells (TUNEL cells) measured by flow cytometry. Cells in F and G were co-treated with or without 20 microM Z-LEHD-FMK (a caspase-9 inhibitor).
as §1
Western blot analysis. […]

Row | Structure (SMILES) | half-time of dissociation [1] [h] | VEGF level [2] | caspase-3 cleavage/activation [2] | α-tubulin and β-tubulin levels [2] | cell cycle arrest and apoptosis in HUC [3] | caspase-9 and caspase-3 activation [4] | α-tubulin and β-tubulin levels [4]
1 | C=CCNC(=S)SC[C@H](NC(C)=O)C(=O)O [NAC-AITC, N-acetyl-S—(N-allylthiocarbamoyl)cysteine] | ~12 | downregulation | dose-dependent cleavage/activation | downregulation |  |  | 
2 | C=CCN=C=S [AITC, allyl isothiocyanate] |  |  |  |  | failed to cause cell cycle arrest and apoptosis | activation of both caspase-9 and caspase-3 | significantly down regulated

— patent US9486434B2, “Method for delivery and use of isothiocyanates for prophylaxis and/or therapy of bladder cancer” (Health Research Inc., priority 2010, dated 2016)
